We go through 3 compounds from patent US7687502B2, “Substituted quinazoline or pyridopyrimidine derivative” (Banyu Pharmaceutical Co., Ltd., priority 2004, dated 2010).

This assay concerns the target T1, Recombinant human liver GK (Homo sapiens, UniProt P35557).
T1 construct: made in house; host or cells: E. coli
T1 sequence (P35557 1-466 isoform P35557-2): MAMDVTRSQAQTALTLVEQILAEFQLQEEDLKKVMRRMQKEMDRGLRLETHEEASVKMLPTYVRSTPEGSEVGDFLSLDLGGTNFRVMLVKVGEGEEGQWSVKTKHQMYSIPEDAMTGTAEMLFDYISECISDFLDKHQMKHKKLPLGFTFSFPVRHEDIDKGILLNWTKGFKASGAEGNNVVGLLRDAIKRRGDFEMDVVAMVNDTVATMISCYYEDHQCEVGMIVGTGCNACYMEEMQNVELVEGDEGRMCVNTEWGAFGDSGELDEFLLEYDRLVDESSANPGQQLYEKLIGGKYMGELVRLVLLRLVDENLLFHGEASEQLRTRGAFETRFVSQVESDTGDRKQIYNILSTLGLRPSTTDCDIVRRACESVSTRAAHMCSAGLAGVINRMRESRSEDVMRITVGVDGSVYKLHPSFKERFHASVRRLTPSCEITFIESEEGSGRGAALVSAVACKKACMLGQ
Kind of assay: Glucokinase activating action (G6PDH-coupled thio-NADH absorbance assay). It counts as biochemical. The conditions noted are these: GK activating ability, final glucose concentration 2.5 mM, 30° C.; for Emax: OD of DMSO control defined as 100%. The protocol: Glucokinase activating ability was measured using the compound of the present invention.
Measurement of an excellent glucokinase activating action of the compounds represented by the aforementioned formula (I) is able to be carried out by a method mentioned in literatures such as Diabetes, vol. 45, pages 1671 to 1677 (1996) or a method similar thereto.
Recombinant human liver GK used in this assay was expressed in E. coli as FLAG fusion protein and purified by ANTIFLAG M2 AFFINITY GEL (Sigma).
The assay was conducted at 30° C. using a flat-bottom 96-well plate. An assay buffer (25 mM Hepes Buffer: pH=7.2; 2 mM MgCl2, 1 mM ATP, 0.5 mM TNAD and 1 mM dithiothreitol) (69 μl) was dispensed and 1 μl of a solution of a compound in DMSO or DMSO (as a control) was added. After that, 20 μl of an enzyme mixture (FLAG-GK, 20 U/ml G6PDH) cooled in ice was added, then 10 μl of 25 mM glucose which is a substrate was added and the reaction was started (final glucose concentration=2.5 mM).
After starting the reaction, an increase in absorbance at 405 nm was measured for 10 minutes every 30 seconds and the compound was evaluated using the increase during the first 5 minutes. FLAG-GK was added in such a manner that an increase in absorbance after 5 minutes in the presence of 1% of DMSO became between 0.05 and 0.1.
OD value in the case of DMSO control was defined as 100% and OD values in various concentrations of the compound to be evaluated were measured. From the OD values in various concentrations, Emax (%) and EC50 (μM) were calculated and used as indexes of GK activating ability of the compound.

For `FCC(CF)Oc1ccc2ncnc(Nc3nc4cccnc4s3)c2c1` [Example 22, [6-(2-Fluoro-1-fluoromethyl-ethoxy)-quinazolin-4-yl]-thiazolo[5,4-b]pyridin-2-yl-amine], the Emax was determined as 860% and the EC50 was determined as 80 nM.
Turning to `c1cnc2sc(Nc3ncnc4ccc(Sc5nnc[nH]5)cc34)nc2c1` [Example 1, [6-(4H-[1,2,4]Triazol-3-ylsulfanyl)-quinazolin-4-yl]-thiazolo[5,4-b]pyridin-2-yl-amine], the Emax came out at 1000% and the EC50 was 180 nM.
Turning to `c1cnc2sc(Nc3ncnc4ccc(Sc5nnc[nH]5)nc34)nc2c1` [Example 31], the EC50 came out at 90 nM.

The term Emax denotes the greatest response seen or fitted, relative to the assay's reference. For orientation: EC50 means the concentration giving half of the maximal effect.
